Assay in all cases: inhibition of tumour cell growth, NCI panel, 48 h
Assay [1] deals with CAKI-1 renal.
Assay [2] deals with CCRF-CEM leukemia.
For assay [3], the system named is DU-145 prostate.
Assay [4] concerns MDA-MB-231 breast.
Assay [5] has as its system MOLT-4 leukemia.
For assay [6], the system named is NCI-H226 lung.
The test system of assay [7] is OVCAR-3 ovarian.
Assay [8] has as its system PC-3 prostate.
Assay [9] concerns SN12C renal.
Assay [10] deals with SNB-19 CNS.

Where “and” joins values, the source holds several entries; their conditions need not be identical. Equal values may be shown once.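 Five concentrations, 48 hours, 96-well plates. GI50 marks 50% less growth. TGI marks complete inhibition of growth.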 Some results are limits rather than exact numbers.

The text below walks through data of PubChem BioAssay (NCI).

Turning to `O=C(Nc1ccc(Nc2ccncc2)cc1)c1ccc(Nc2ccnc3ccc([N+](=O)[O-])cc23)cc1[N+](=O)[O-]`, the GI50 in [1] is above 39.6 µM; in assay [2], 18.6 µM; in assay [3], 5.55 µM; in assay [4], 24.6 µM; in [5] it was 43.9 µM; in [6], 37.5 µM. Further, the GI50 in assay [7] was 24.7 µM; in [8], 5.05 µM; in assay [9], 20.4 µM; in [10] it was 5.61 µM. For the same compound, the TGI was above 83.2 µM in assay [1]; above 50.6 µM in assay [2]; 25.5 µM in assay [3]; above 61.8 µM in assay [4]; above 100 µM in [5]; above 93.9 µM in assay [6]. Also, the TGI was above 89.5 µM in [7], above 40 µM in assay [8], above 55.5 µM in [9] and above 100 µM in [10].

As to `COc1ccc(C(=O)/C=C/c2cc(-c3ccc4c(c3)OCO4)n[nH]2)cc1OC`, the GI50 in assay [1] was 1.9 µM; in assay [2], 2.52 µM; in assay [3], 1.87 µM; in [4] it was 2.44 µM; in [5] it was 3 µM; in assay [6], 3.4 µM. In addition, the GI50 in assay [7] was 2.02 µM; in [8], 2.58 µM; in assay [9] it was 3.25 µM; in assay [10], 3.2 µM. In addition, the TGI in [1] stood at 4.33 µM; in assay [2] it was 9.58 µM; in [3], 4.27 µM; in [4], 7.39 µM; in assay [5], 10.3 µM; in [6] it was 11.2 µM. Further, the TGI in assay [7] is 4.61 µM; in assay [8] it was 18.2 µM; in assay [9], 13.6 µM; in [10] it was 15.2 µM.

As to `CCOC(=O)c1ccccc1SC(C[N+](=O)[O-])c1ccccc1` (configuration not stated), the GI50 was 14.8 µM in assay [1]; 4.64 µM in assay [2]; 5.91 µM in [3]; 9.1 µM in assay [4]; 4.54 µM in [5]; 16.1 µM in assay [6]. Besides, the GI50 in assay [7] was 10.4 µM; in assay [8], 4.4 µM; in [9], 8.17 µM; in assay [10], 11.7 µM. In addition, the TGI in [1] was 31.2 µM; in assay [2], 36.2 µM; in assay [3], 18.4 µM; in [4], 21.8 µM; in assay [5] it was 30.6 µM; in assay [6], 44.5 µM. The TGI in [7] turned out to be 22.4 µM; in assay [8] it was 16.6 µM; in [9], 20.8 µM; in assay [10], 23.9 µM.

Take `Oc1ccc2ccccc2c1N=Nc1ccc(Cl)cc1`: the TGI in assay [1], in assay [2], in assay [3], in assay [4], in assay [5] and in assay [6] was above 100 µM in each case. Also, the TGI in assay [7], in assay [8], in assay [9] and in [10] was above 100 µM in each case.

For `CC(C)C[CH2][Ge]([CH2]CC(C)C)([CH2]CC(C)C)[CH2]CC(C)C`, the GI50 in [1], in assay [2], in assay [3], in [4], in assay [5] and in assay [6] was above 100 µM throughout. Moreover, the GI50 in assay [7], in [8], in assay [9] and in assay [10] was above 100 µM in each case. The TGI in [1], in assay [2], in [3], in assay [4], in [5] and in [6] was above 100 µM throughout. Also, the TGI in [7], in assay [8], in [9] and in assay [10] was above 100 µM each time.

Regarding `C=C(C)[C@@H]1CC[C@]2(C(=O)O)CC[C@]3(C)[C@H](CC[C@@H]4[C@@]5(C)C/C(=C/c6cccc(I)c6)C(=O)C(C)(C)[C@@H]5CC[C@]43C)[C@@H]12`, the GI50 in assay [1] is 2.22 µM; in [2], 2.74 µM; in assay [3], 2.63 µM; in assay [4] it was 2.83 µM; in assay [5] it was 2.85 µM; in [6], 2.64 µM. The GI50 in assay [7] was 1.78 µM; in [8], 2.2 µM; in assay [9], 2.93 µM; in assay [10] it was 3.28 µM. For the same compound, the TGI in assay [1] was found to be 10.7 µM; in [2], 10.3 µM; in [3], 7.84 µM; in assay [4], 10 µM; in assay [5] it was 9.45 µM; in assay [6], 10.1 µM. Besides, the TGI in [7] came out at 3.7 µM; in [8], 10.6 µM; in assay [9], 11.7 µM; in assay [10] it was 17.5 µM.

As to `CCCCCCCCCCC[C@@H](C[C@H]1OC(=O)[C@H]1CCCCCC)OC(=O)[C@@H](CC(C)C)NC=O`, the GI50 was 5.5 µM in [1]; 1.31 µM in assay [2]; 16.7 µM in assay [3]; 1.53 µM in assay [4]; 0.704 µM in assay [5]; 2.1 µM in assay [6]. The GI50 in [7] is 3.17 µM; in assay [8], 2.78 µM; in [9] it was 2.42 µM; in assay [10], 5.02 µM. Also, the TGI in [1] was above 100 µM; in assay [2], 76.4 µM; in [3], above 100 µM; in [4], 5.45 µM; in assay [5], above 100 µM; in assay [6], 7.91 µM. The TGI in assay [7] amounted to 14.5 µM; in assay [8], 22.8 µM; in assay [9], 12.2 µM; in [10], 25.4 µM.

Regarding `CC#CC#C/C=C1\C=CC2(OC=CC2OC(C)=O)O1` (configuration not stated), the TGI in [1] is 31.2 µM; in assay [2], 40.3 µM and 72.9 µM; in [3] it was 37.7 µM; in assay [4] it was 41.9 µM; in assay [5] it was 64.6 µM and 53.2 µM; in assay [6], > 100 µM and 23.4 µM. Moreover, the TGI in [7] is 74.4 µM; in assay [8] it was above 100 µM; in assay [9], 36.5 µM and 31 µM; in assay [10] it was above 100 µM. For the same compound, the GI50 in assay [5] is 6.9 µM and 17.8 µM; in assay [6], > 100 µM and 11.1 µM.

For the compound `C[C@@H](Oc1cc(-n2cnc3ccc(OCC4CCN(C)CC4)cc32)sc1C(N)=O)c1ccccc1Cl`, the GI50 was 0.774 µM in [1]; 0.00965 µM in assay [2]; 0.0528 µM in assay [3]; 0.0924 µM in assay [4]; 0.0585 µM in [5]; 0.674 µM in assay [6]. The GI50 was 0.0577 µM in assay [7], 0.136 µM in assay [8], 0.344 µM in assay [9] and 0.177 µM in assay [10]. For the same compound, the TGI in [1] amounted to 4.81 µM; in assay [2], 0.856 µM; in assay [3], 0.141 µM; in assay [4], 2.15 µM; in assay [5], 3.13 µM; in assay [6], 4.81 µM. The TGI was 2.97 µM in [7], 4.42 µM in assay [8], 4.52 µM in assay [9] and 5.01 µM in assay [10].

`CCOC(=O)c1ccc(N(C=O)CCC(=O)CCl)cc1`: the GI50 was 0.528 µM in assay [1]; 0.037 µM in [2]; 0.366 µM in [3]; 0.275 µM in assay [4]; 0.0433 µM in [5]; 0.297 µM in assay [6]. The GI50 in [7] was 0.399 µM; in assay [8], 0.401 µM; in assay [9] it was 0.217 µM; in [10] it was 2.37 µM. Moreover, the TGI came to 2.05 µM in [1]; 1.6 µM in [2]; 13.9 µM in [3]; 1.16 µM in assay [4]; 3.88 µM in assay [5]; 1.36 µM in [6]. Moreover, the TGI in assay [7] worked out at 1.35 µM; in assay [8] it was 14.8 µM; in assay [9] it was 4.27 µM; in assay [10], 22.4 µM.

As for `O=C1NC(=O)[C@@H](c2c[nH]c3ccccc23)[C@@H]1c1c[nH]c2ccccc12`, the GI50 in assay [1], in assay [2], in assay [3], in assay [4], in assay [5] and in assay [6] was above 25 µM in each case. In addition, the GI50 in assay [7], in [8], in assay [9] and in [10] was above 25 µM each time. Further, the TGI in assay [1], in assay [2], in [3], in assay [4], in assay [5] and in assay [6] was above 25 µM throughout. Besides, the TGI in assay [7], in assay [8], in assay [9] and in assay [10] was above 25 µM in each case.

Turning to `COc1ccc2c(c1)C(=O)c1c-2c(N2CCN(C(=O)CNCCN(C)C)CC2)nc2ccccc12`, the GI50 in [1] is 3.86 µM; in assay [2] it was 1.39 µM; in assay [3] it was 3.32 µM; in assay [4], 1.79 µM; in [5], 1.47 µM; in assay [6], 4.11 µM. Besides, the GI50 in assay [7] is 2.01 µM; in assay [8], 3.48 µM; in assay [9], 2.54 µM; in assay [10], 4.99 µM. The TGI stood at 17.6 µM in assay [1]; 4.5 µM in assay [2]; 13.3 µM in assay [3]; 3.61 µM in [4]; 5.98 µM in assay [5]; 18 µM in assay [6]. The TGI in assay [7] was 5.76 µM; in [8] it was 15.1 µM; in [9], 7.56 µM; in assay [10] it was 19.8 µM.

Turning to `COc1cc(/C=C/C(=N\NC(=S)NN)c2sc(NNC(C)=O)nc2C)ccc1O`, the TGI in assay [1], in assay [2], in assay [3], in assay [4], in assay [5] and in [6] was above 100 µM throughout. Further, the TGI in assay [7], in [8], in [9] and in assay [10] was above 100 µM each time.

Take `CCCCCCCCCCCC1=NC(C)(C)CN1CC(C)O` (configuration not stated): the GI50 in assay [1] was 2.97 µM; in assay [2], 2.85 µM; in [3] it was 11.7 µM; in assay [4] it was 3.82 µM; in assay [5], 2.83 µM; in [6], 13.1 µM. The GI50 in assay [7] was 3.35 µM; in assay [8], 4.48 µM; in assay [9], 7.26 µM; in [10], 12.9 µM. Further, the TGI in [1] stood at 12.2 µM; in assay [2], 11.9 µM; in assay [3] it was 24 µM; in assay [4], 13.7 µM; in assay [5], 8.51 µM; in [6] it was 28.6 µM. In addition, the TGI stood at 12.7 µM in assay [7], 18.6 µM in assay [8], 20.3 µM in assay [9] and 25.8 µM in [10].

In the case of `COc1ccc(-c2nnc(SCC(=O)Nc3ccc(C(=O)/C=C/c4cc(OC)c(OC)c(OC)c4)cc3)n2-c2ccccc2)cc1OC`, the GI50 in assay [1] was 8.57 µM; in assay [2], 2.84 µM; in assay [3], 3.86 µM; in assay [4] it was 4.84 µM; in [5] it was 9.46 µM; in assay [6], 2.29 µM. Also, the GI50 is 3.18 µM in [7], 6.89 µM in [8], above 10 µM in assay [9] and above 10 µM in [10]. Further, the TGI in [1] was above 10 µM; in assay [2] it was above 10 µM; in assay [3], above 10 µM; in assay [4], above 10 µM; in [5], above 10 µM; in [6], 8.06 µM. The TGI in [7], in assay [8], in assay [9] and in assay [10] was above 10 µM each time.
